In US4307106A, “Aminothiazoles” (Pfizer Inc., priority 1979, dated 1981):
Counter-ions that a name gives are not always drawn.

Columns and labels:
[1] = test system: carrageenin-induced rat foot edema; test: carrageenin-induced rat foot edema test; format: in vivo, rat (male albino); conditions: 33 mg/kg, p.o., 3 hours after carrageenin, vs non-drug treated control
Protocol: The activity of the compounds of the present invention as anti-inflammatoryagents may be determined by pharmacological tests, for example the standard carrageenin-induced rat foot edema test using the general procedure described by C. A. Winter et. al., see Proceedings of the Society of Experimental Biology in Medicine, Volume 111, page 544 (1962). In this test, anti-inflammatory activity is determined as the percent inhibition of edema formation in the hind paw of male albino rats (generally weighing about 150 to 190 grams) in response to a sub-plantar injection of carrageenin. The carrageenin is injected as a 1% aqueous suspension 1 hour after oral administration of the drug, which is normally given in the form of an aqueous solution or suspension. Edema formation is then assessed 3 hours after the carrageenin injection by comparing the initial volume of the injected paw and the volume after a 3 hour period. The increase in volume 3 hours after carrageenin injection constitutes the individual response. Compounds are considered active if the response between the drug-treated animals (6 rats per group) and the control group, i.e. the animals receiving the vehicle alone, is found to be significant on comparison with the results afforded by standard compounds like acetylsalicyclic acid at 100 mg/kg or phenylbutazone at 33 mg/kg, both by the oral route of administration.
The anti-inflammatory activity of aminothiazoles of this invention was determined using the standard carrageenin-induced rat foot edema test, according to the procedure essentially as described by C. A. Winter etl. al., and reported in the Proceedings of the Society for Experimental Biology and Medicine, Vol. 111, p. 544 (1962). The compounds were administered orally in the form of their previously reported hydrohalide salts at a dose level of 33 mg/kg. The results obtained in this manner are presented in the table below in terms of the percent inhibition of edema formation afforded by each test compound as compared to the non-drug treated control (i.e., aqueous solution with no compound): […]

murine thymus cells = test: in vitro stimulation of lymphocyte proliferation of murine thymus cells cultured in the presence of Concanavalin A (lymphocyte stimulation assay, LSA); format: cell-based, mouse (male C57B1/6); conditions: Con A-stimulated thymus cells, 48 h at 37° C.; for LSA activity: highest 3H-thymidine cpm of eight concentrations 0.02 to 50 μg/ml, hydrohalide salts
Source text: The immune regulant activity of the compounds of the present invention may be determined by such pharmacological tests as the stimulation in vitro of lymphocyte proliferation of murine thymus cells cultured in the presence of Concanavalin A (Con A), employing the general evaluation procedure of V. J. Merluzzi et. al., see Journal of Clinical and Experimental Immunology, Volume 22, page 486 (1975).
The immune regulant activity of the aminothiazoles described in Examples 2, 3, 4, 6, 7, 8, 10 and 11 was evaluated by determining their ability to stimulate, in vitro the lymphocyte proliferation of murine thymus cells cultured in the presence of Concanavalin A (Con A) by employing the procedure of V. J. Merluzzi et. al., as essentially described in the Journal of Clinical and Experimental Immunology, Vol. 22, p. 486 (1975). The cells were derived from male C57B1/6 mice of from 6-8 weeks age, purchased from the Jackson Laboratories of Bar Harbor, Maine and the Con A was obtained from Sigma Chemicals of St. Louis, Mo. Each cell culture (consisting of 0.10 ml thymus cells stock solution, 0.05 ml of Con A stock solution and 0.05 ml of drug solution) was performed in quadruplicate and cellular proliferation was measured, after 48 hours of incubation at 37° C., by pulsing each culture with ^3 H-thymidine (0.01 ml of specific activity 1.9 C/mM, obtained from Schwarz-Mann, Inc. of Orangeburg, N.Y.) and then determining the incorporation of ^3 H-thymidine into cellular deoxyribonucleic acid (DNA) by an assessment of radioactivity using a liquid scintillation counter. […] These quadruplicate determinations are employed at eight different concentrations of drugs in the range 0.02 to 50 μg/ml. The highest cpm value obtained is employed in the scoring system.

Compound | % Inhibition of edema [1] | LSA activity (murine thymus cells) | average counts per minute of 3H-thymidine incorporated (LSA activity) (murine thymus cells; levamisole standard, drug level with maximum activity)
COc1ccc(CCNc2nc(-c3ccc(F)cc3)cs2)cc1 [2-(p-methoxyphenethylamino)-4-(p-fluorophenyl)-thiazole] | 29% |  | 
Fc1ccc(-c2csc(NCc3cccs3)n2)cc1 [2-thenyl, 4-fluorophenyl, hydrogen, HBr, 2-thenylamino-4-(p-fluorophenyl)-thiazole] | 49% |  | 
Br.c1ccc(CCNc2nc(-c3ccccc3)cs2)cc1 [Example 2, 2-phenethylamino-4-phenyl-thiazole hydrobromide] | 47% | +++ (those having an activity (27,000±1,000 cpm) greater than levamisole were scored as +++) | 
Br.Cc1sc(NCCc2ccccc2)nc1-c1ccccc1 [Example 3, 2-phenethylamino-4-phenyl-5-methylthiazole hydrobromide] |  | +++ (those having an activity (27,000±1,000 cpm) greater than levamisole were scored as +++) | 
c1ccc(-c2csc(NCc3cccs3)n2)cc1 [Example 6, 2-thenylamino-4-phenyl-thiazole hydrobromide] |  | +++ (those having an activity (27,000±1,000 cpm) greater than levamisole were scored as +++) | 
Fc1ccc(-c2csc(NCc3cccs3)n2)cc1 [Example 7, 2-thenylamino-4(p-fluorophenyl)-thiazole hydrochloride] |  | +++ (those having an activity (27,000±1,000 cpm) greater than levamisole were scored as +++) | 
Br.Cc1sc(NCc2ccco2)nc1-c1ccccc1 [Example 10, 2-furfurylamino-5-methyl-4-phenyl-thiazole hydrobromide] |  | +++ (those having an activity (27,000±1,000 cpm) greater than levamisole were scored as +++) | 
c1ccc([C@H]2CN3CCSC3=N2)cc1 [levamisole, reference compound] |  |  | 22,000±900 cpm
